The text below walks through data of US12251459B2, “Compositions, formulations, and methods for hair treatment” (Oddity Labs, LLC, priority 2022, dated 2025).

This test has as its system human hair follicle dermal papilla cells (hFDPC). Nature of the test: Human follicle dermal papilla cells (hFDPC) proliferation assay. The class given is cell-based. The note with it: hFDPCs supplemented with BIO, BMP-2 and FGFβ. An excerpt: In Table 8, A represents less than 20% of increased proliferation of hFDPCs, B represents 20-40%, and C represents larger than 40% of increased proliferation of hFDPCs.
For `CC(C)(C)Nc1nnc(SCc2cc(=O)oc3cc(O)ccc23)s1` [IV-1, 2H-1-Benzopyran-2-one, 4-[[[5-[(1,1-dimethylethyl)amino]-1,3,4-thiadiazol-2-yl]thio]methyl]-7-hydroxy-], the “Percent Increase Proliferation of hFDPCs (%)” value was “B (B represents 20-40%)”.
In the case of `CSc1nnc(SCc2cc(=O)oc3cc(O)ccc23)s1` [IV-2, 2H-1-Benzopyran-2-one, 7-hydroxy-4-[[[5-(methylthio)-1,3,4-thiadiazol-2-yl]thio]methyl]-] it was “A (A represents less than 20% of increased proliferation of hFDPCs)”; in that of `COc1ccccc1-n1c(SCc2cc(=O)oc3cc(O)ccc23)nc2ccccc2c1=O` [IV-3, 4(3H)-Quinazolinone, 2-[[(7-hydroxy-2-oxo-2H-1-benzopyran-4-yl)methyl]thio]-3-(2-methoxyphenyl)-], “B (B represents 20-40%)”.
In the case of `CCC(C)Cc1c(C)sc2[nH]c(SCc3cc(=O)oc4cc(O)ccc34)nc(=O)c12` (centres unmarked) [IV-4, Thieno[2,3-d] pyrimidin-4(1H)-one, 2-[[(7-hydroxy-2-oxo-2H-1-benzopyran-4-yl)methyl]thio]-6-methyl-5-(2-methylbutyl)-] it was “A (A represents less than 20% of increased proliferation of hFDPCs)”; in that of `Cc1ccc(Cn2ncc3c(N4CCCC4)ncnc32)cc1` [V-1, 1H-Pyrazolo[3,4-d] pyrimidine, 1-[(4-methylphenyl)methyl]-4-(1-pyrrolidinyl)-], “A (A represents less than 20% of increased proliferation of hFDPCs)”.
For the molecule `Cc1ccc(-n2ncc3c(N4CCCCC4)ncnc32)c(C)c1` [V-2, 1H-Pyrazolo[3,4-d] pyrimidine, 1-(2,4-dimethylphenyl)-4-(1-piperidinyl)-], the “Percent Increase Proliferation of hFDPCs (%)” value was “A (A represents less than 20% of increased proliferation of hFDPCs)”.
As to `CC1CCCCN1c1nc(-c2ccccc2)nc2sc(-c3ccccc3)cc12` (centres unmarked) [V-3, Thieno[2,3-d] pyrimidine, 4-(2-methyl-1-piperidinyl)-2,6-diphenyl-], the “Percent Increase Proliferation of hFDPCs (%)” value is on record as “B (B represents 20-40%)”.
In the case of `CCS(=O)(=O)N1CCN(c2ncnc3cc[nH]c23)CC1` [V-4, 5H-Pyrrolo[3,2-d] pyrimidine, 4-[4-(ethylsulfonyl)-1-piperazinyl]-] it was “A (A represents less than 20% of increased proliferation of hFDPCs)”.
In the case of `O=C(C1CCN(S(=O)(=O)c2ccccc2)CC1)N1CCN(Cc2ccc3c(c2)OCO3)CC1` [VI-1, Methanone, [4-(1,3-benzodioxol-5-ylmethyl)-1-piperazinyl][1-(phenylsulfonyl)-4-piperidinyl]-] it was “A (A represents less than 20% of increased proliferation of hFDPCs)”; in that of `N#Cc1ccc(S(=O)(=O)N2CCC(C(=O)N3CCN(Cc4ccc5c(c4)OCO5)CC3)CC2)cc1` [VI-2, Benzonitrile, 4-[[4-[[4-(1,3-benzodioxol-5-ylmethyl)-1-piperazinyl]carbonyl]-1-piperidinyl]sulfonyl]-], “B (B represents 20-40%)”; in that of `COc1ccc(S(=O)(=O)N2CCC(C(=O)N3CCN(Cc4ccc5c(c4)OCO5)CC3)CC2)cc1C` [VI-3, Methanone, [4-(1,3-benzodioxol-5-ylmethyl)-1-piperazinyl][1-[(4-methoxy-3-methylphenyl)sulfonyl]-4-piperidinyl]-], “B (B represents 20-40%)”.
The result for `Cc1ccc(S(=O)(=O)N2CCC(C(=O)N3CCN(Cc4nc5ccccc5s4)CC3)CC2)cc1` [VI-4, Methanone, [4-(2-benzothiazolylmethyl)-1-piperazinyl][1-[(4-methylphenyl)sulfonyl]-4-piperidinyl]-] reads “A (A represents less than 20% of increased proliferation of hFDPCs)”; that for `COc1ccc(S(=O)(=O)Nc2ccc(S(=O)(=O)NCCc3ccccc3)cc2)cc1` [VI-5, Benzenesulfonamide, 4-methoxy-N-[4-[[(2-phenylethyl)amino]sulfonyl]phenyl]-], “A (A represents less than 20% of increased proliferation of hFDPCs)”.
Consider `O=C(O)CC1SC(NN=Cc2ccc(OS(=O)(=O)c3ccc([N+](=O)[O-])cc3)cc2)=NC1=O` (centres unmarked) [VI-6, 5-Thiazoleacetic acid, 4,5-dihydro-2-[2-[[4-[[(4-nitrophenyl)sulfonyl]oxy]phenyl]methylene] hydrazinyl]-4-oxo-], for which the “Percent Increase Proliferation of hFDPCs (%)” value is recorded as “A (A represents less than 20% of increased proliferation of hFDPCs)”.
On to `CCS(=O)(=O)n1[nH]c(-c2ccco2)nc1=N` [VII-2, 1H-1,2,4-Triazol-5-amine, 1-(ethylsulfonyl)-3-(2-furanyl)-], for which the “Percent Increase Proliferation of hFDPCs (%)” value is reported as “A (A represents less than 20% of increased proliferation of hFDPCs)”.
The result for `CCn1c(SCC(=O)c2ccc(S(=O)(=O)N3CCCC3)cc2)nnc1-c1ccco1` [VII-4, Ethanone, 2-[[4-ethyl-5-(2-furanyl)-4H-1,2,4-triazol-3-yl]thio]-1-[4-(1-pyrrolidinylsulfonyl)phenyl]-] reads “A (A represents less than 20% of increased proliferation of hFDPCs)”; that for `NC(=O)c1ccc(NC(=O)CCCc2nc(-c3ccccc3)no2)cc1` [VII-5, 1,2,4-Oxadiazole-5-butanamide, N-[4-(aminocarbonyl)phenyl]-3-phenyl-], “A (A represents less than 20% of increased proliferation of hFDPCs)”; that for `CCOC(=O)c1cnn(-c2ccc(C(=O)Nc3ccc(C(=O)NCC(=O)OC)cc3)cc2)c1C` [VII-6, 1H-Pyrazole-4-carboxylic acid, 1-[4-[[[4-[[(2-methoxy-2-oxoethyl)amino]carbonyl]phenyl]amino]carbonyl]phenyl]-5-methyl-, ethyl ester], “A (A represents less than 20% of increased proliferation of hFDPCs)”.
In the case of `CCOC(=O)c1cnn(-c2ccc(C(=O)Nc3ccc(S(=O)(=O)CC)cc3)cc2)c1C` [VII-7, 1H-Pyrazole-4-carboxylic acid, 1-[4-[[[4-(ethylsulfonyl)phenyl]amino]carbonyl]phenyl]-5-methyl-, ethyl ester] it was “B (B represents 20-40%)”; in that of `CCOC(=O)c1cnn(-c2cccc(NC(=O)C3CCN(c4ncccn4)CC3)c2)c1C` [VII-8, 1H-Pyrazole-4-carboxylic acid, 5-methyl-1-[3-[[[1-(2-pyrimidinyl)-4-piperidinyl]carbonyl]amino]phenyl]-, ethyl ester], “A (A represents less than 20% of increased proliferation of hFDPCs)”.
The result for `NC1=NC2(CCCCCC2)n2c(nc3ccccc32)N1` [VII-9, Spiro[cycloheptane-1, 4′(1′H)-[1,3,5]triazino[1,2-a]benzimidazol]-2′-amine] reads “B (B represents 20-40%)”.
On to `O=C1CNCc2[nH]c3ccccc3c2N1c1ccccc1` [VII-10, 1,4-Diazepino[6,5-b] indol-2(1H)-one, 3,4,5,6-tetrahydro-1-phenyl-], for which the “Percent Increase Proliferation of hFDPCs (%)” value was “B (B represents 20-40%)”.
In the case of `NC1=NC2(CCCCC2)n2c(nc3ccccc32)N1` [VII-11, Spiro[cyclohexane-1, 4′(3′H)-[1,3,5]triazino[1,2-a]benzimidazol]-2′-amine], the “Percent Increase Proliferation of hFDPCs (%)” value is “A (A represents less than 20% of increased proliferation of hFDPCs)”.
The result for `Cc1cc(C)cc(N2Cc3ccccc3C2)c1` [VII-12, 1H-Isoindole, 2-(3,5-dimethylphenyl)-2,3-dihydro-] reads “A (A represents less than 20% of increased proliferation of hFDPCs)”; that for `Oc1c2c(c(O)n1C1CCCCC1)CC=CC2` [VII-13, 1H-Isoindole-1,3(2H)-dione, 2-cyclohexyl-3a,4,7,7a-tetrahydro-], “A (A represents less than 20% of increased proliferation of hFDPCs)”; that for `Cc1cccc(CN2CCN(c3ncccn3)CC2)c1` [VII-15, Pyrimidine, 2-[4-[(3-methylphenyl)methyl]-1-piperazinyl]-], “A (A represents less than 20% of increased proliferation of hFDPCs)”.
In the case of `COc1ccc(N(CC(=O)N2CCN(c3ccccc3OC)CC2)S(=O)(=O)c2ccccc2)cc1` [VII-16, Benzenesulfonamide, N-(4-methoxyphenyl)-N-[2-[4-(2-methoxyphenyl)-1-piperazinyl]-2-oxoethyl]-] it was “A (A represents less than 20% of increased proliferation of hFDPCs)”.
In the case of `O=C1Nc2ccccc2SC1CC(=O)N1CCN(C(c2ccccc2)c2ccccc2)CC1` (centres unmarked) [VII-17, 2H-1,4-Benzothiazin-3(4H)-one, 2-[2-[4-(diphenylmethyl)-1-piperazinyl]-2-oxoethyl]-], the “Percent Increase Proliferation of hFDPCs (%)” value is listed as “A (A represents less than 20% of increased proliferation of hFDPCs)”.
The result for `O=C(c1cccs1)N1CCN(C(=O)c2cccc3ccccc23)CC1` [VII-18, Piperazine, 1-(1-naphthalenylcarbonyl)-4-(2-thienylcarbonyl)-(9CI)] reads “A (A represents less than 20% of increased proliferation of hFDPCs)”; that for `CC12C=CC(=O)C=C1CCC1C2C(O)CC2(C)C1CC[C@]2(O)C(=O)COC(=O)CCC(=O)O` (stereo partly drawn) [VII-19, Pregna-1,4-diene-3, 20-dione, 21-(3-carboxy-1-oxopropoxy)-11,17-dihydroxy-, (11β)-], “A (A represents less than 20% of increased proliferation of hFDPCs)”; that for `CCN(Cc1ccccc1)C(=O)c1ccc(C(=O)N(CC)Cc2ccccc2)cc1` [VII-20, 1,4-Benzenedicarboxamide, N^1,N^4-diethyl-N^1, N^4-bis(phenylmethyl)-], “A (A represents less than 20% of increased proliferation of hFDPCs)”.
The result for `Cc1ccc(-c2nn(CC(=O)NCCc3c(C)n(C)c4ccccc34)c(=O)c3ccccc23)cc1S(=O)(=O)N1CCOCC1` [VII-21, 2(1H)-Phthalazineacetamide, N-[2-(1,2-dimethyl-1H-indol-3-yl)ethyl]-4-[4-methyl-3-(4-morpholinylsulfonyl)phenyl]-1-oxo-] reads “A (A represents less than 20% of increased proliferation of hFDPCs)”.
